From patent US6869945B2, “Pyrrolyl-and imidazolyl-acid amide derivatives useful as inhibitors of PDE4 isozymes” (Pfizer Inc, priority 2001, dated 2005)
Entries after “also recorded” stand apart in the source; their conditions may differ.

Experiments:
[1] = in vivo; cited from earlier work
PDE4 = conditions: catalytic site (Sc); cited from earlier work
[2] = cited from earlier work
[3] = 54 subjects; cited from earlier work
[4] = system: rhinorrhea in the antigen-challenged pig; conditions: cited from earlier work
[5] = system: LPS-stimulated ex vivo TNF release and PHA induced lymphocyte proliferation; conditions: oral dose of 300 mg, cited from earlier work
guinea-pig trachea = conditions: cited from earlier work
[6] = system: guinea-pig macrophage PDE4; conditions: cited from earlier work
[7] = system: dextran sulfate induced colitis; conditions: cited from earlier work; for effects in dextran sulfate induced colitis: rat
[8] = 35 rheumatoid arthritis patients, t.i.d.; cited from earlier work
TNF-α mRNA expression = conditions: mouse, in vivo; cited from earlier work
epidermal basal cells = conditions: primary culture; cited from earlier work
[9] = system: psoriatic epidermal slices and keratomed psoriatic epidermal slices; conditions: cited from earlier work
[10] = in vivo; cited from earlier work; remark: listed apart in the source
[11] = system: human peripheral blood mononuclear cells; conditions: cited from earlier work
[12] = system: endotoxin-induced acute renal failure; conditions: cited from earlier work
[13] = 15 mg twice a day for six weeks; cited from earlier work
[14] = system: isolated pulmonary artery rings; conditions: normal rats and rats with hypoxia-induced pulmonary hypertension; cited from earlier work
[15] = system: croton oil-induced ear inflammation; conditions: mouse; cited from earlier work
[16] = system: experimental allergic encephalomyelitis; conditions: in vivo; cited from earlier work
[17] = system: collagen II induced arthritis; conditions: 2 mg/kg twice daily for five days before the onset of arthritis; cited from earlier work

Nc1nc2c([nH]1)c(=O)n(CC1CC1)c(=O)n2CC1CC1 [BRL-61,063, cipamfylline]
emesis / nausea and vomiting [1]: adverse events of nausea and vomiting

COc1ccc([C@H](Cc2ccncc2)c2ccccc2)cc1OC1CCCC1 [CDP840]
potency at the Sc relative to SB-207,499 (PDE4): significantly higher potency | late reactions to inhaled allergen / late-phase response ([2]; patients with bronchial asthma, oral): suppression; also recorded: significant inhibition | adverse events ([2]; treatment of asthma): without any adverse events of nausea or headache

Cc1cc2c3c(c1)C(c1ccccc1)=N[C@@H](NC(=O)c1ccncc1)C(=O)N3CC2 [CI-1018]
doses at which no adverse events were reported [3]: up to 400 mg

CC(C)(O)c1ccc(CNC(=O)c2scnc2Oc2ccc3c(c2)OCO3)c(F)c1 [Example 5, 4-(Benzo[1,3]dioxol-5-yloxy)-thiazole-5-carboxylic acid 2-fluoro-4-(1-hydroxy-1-methyl-ethyl)-benzylamide]
melting point: 117 to 118 °C

CCCC1C(=O)C2=C(C(CC)=NC2C)c2nc(OC)ccc21 [Example D-22888]
rhinorrhea ([4]; antigen-challenged pig): inhibit rhinorrhea | anti-allergic effect ([4]; pig, in vivo): strong anti-allergic affect

CCNc1ncn(Cc2ccc(OC)c(OC3CCCC3)c2)c2nc(C(C)C)nc1-2 [Example V-11294A]
reduction of TNF levels ([5]; LPS-stimulated ex vivo TNF release): effective | reduction of lymphocyte proliferation ([5]; PHA induced): effective

O=S1(=O)CCN(c2nc(NC3CC3)nc(C3CC3)n2)C1 [Formula (0.0.56)]
relaxant activity in a guinea-pig trachea model (guinea-pig trachea): potent relaxant agents

CC1CC1c1nc(NC2CC2)nc(N2CCOCC2)n1 (centres unmarked) [Formula (0.0.57)]
relaxant activity in a guinea-pig trachea model (guinea-pig trachea): potent relaxant agents

COc1ccc(S(=O)(=O)C(CCCCc2ccccc2)CC(=O)NO)cc1OC (centres unmarked) [Formula (0.1.36)]
IC50 [6]: 0.001 µM

COc1ccc(S(=O)(=O)C(CCCCc2ccccc2)C(C)C(=O)NO)cc1 (centres unmarked) [Formula (0.1.37)]
IC50 [6]: 0.03 µM

CCCn1c(=O)c2[nH]cnc2n(-c2ccc(Cl)cc2)c1=O [LAS31025]
effects in dextran sulfate induced colitis [7]: beneficial effects comparable to prednisolone

COc1ccc(C(=O)Nc2c(Cl)cncc2Cl)cc1OC1CCCC1 [RP73401]
clinical effect, with reduction in C-reactive protein and IL-6 serum levels [8]: positive trend towards clinical improvement | TNF-α mRNA expression at the pannus/cartilage interface of paw joints (TNF-α mRNA expression): decrease

COc1ccc(CC2CNC(=O)N2)cc1OC1CCCC1 (centres unmarked) [Ro 20-1724]
increase in cAMP concentrations (epidermal basal cells): three-fold increase | cAMP concentrations over controls [9]: very marked elevation | adverse effects [10]: without adverse systemic or cutaneous effects | psoriatic lesions compared with vehicle [10]: improve psoriatic lesions

COc1ccc(CC2CNC(=O)N2)cc1OC1CCCC1 (centres unmarked) [Ro-201724]
proliferation of HPBM from normal patients and subjects with atopic dermatitis [11]: concentration-related inhibition | endotoxin-induced increases in renal vascular resistance and decreases in renal blood flow and glomerular filtration rate ([12]; post-treatment at 10 μg/kg/min): markedly attenuates | urinary cAMP excretion ([12]; post-treatment at 10 μg/kg/min): significantly increases | survival rates for endotoxin-treated rats ([12]; rat, in vivo): improve survival rates

COc1ccc([C@]2(C#N)CC[C@@H](C(=O)O)CC2)cc1OC1CCCC1 [SB-207,499]
FEV1 and forced vital capacity (FVC) [13]: increrases

CCCn1c(=O)c2[nH]cnc2n(-c2ccc(Cl)cc2)c1=O [arofylline]
effects in models of colitis in the rat ([7]; in vivo): beneficial effects

CCCCn1c(=O)c2c(ncn2CC(C)=O)n(CCCC)c1=O [denbufylline]
proliferation of HPBM from normal patients and subjects with atopic dermatitis [11]: concentration-related inhibition

Cc1[nH]c(=O)c(C#N)cc1-c1ccncc1 [milrinone]
effect on relaxation of pulmonary artery rings [14]: same effect

COc1ccc(C2CNC(=O)C2)cc1OC1CCCC1 (centres unmarked) [rolipram]
effects in dextran sulfate induced colitis [7]: beneficial effects comparable to prednisolone | proliferation of HPBM from normal patients and subjects with atopic dermatitis [11]: concentration-related inhibition | effect on relaxation of pulmonary artery rings [14]: potentiates the relaxant activities of isoproterenol and forskolin | lowest topical dose inhibiting croton oil-induced ear inflammation [15]: 0.03 mg per ear | clinical signs and MRI imaging [16]: suppress the appearance of clinical signs and abolish abnormalities in MRI imaging | appearance of arthritic symptoms [17]: significantly delayed
